From patent US20070248705A1, “Agents for Activating the Transcription Factor Nrf2 and Foods Having Such Function” (KIRIN BEER KABUSHIKI KAISHA, priority 2004, published 2007)
Entries after “also recorded” stand apart in the source; their conditions may differ.

Experiments:
[1] = test system: mouse macrophage cell line RAW264.7; test: Amount of intracellular glutathione; format: cell-based; details: RAW264.7, 3 μM, positive control
Procedure: A mouse macrophage cell line RAW264.7 was seeded on a φ60 mm dish (7×10^5 cells), 2 ml of a D-MEM medium (Invitrogen) supplemented with 10% fetal bovine serum (HyClone) and penicillin-streptomycin (100 units/ml and 100 μg/ml, respectively; Sigma) was added, and the dish was incubated at 37° C. in an atmosphere of 5% CO2 for 2 days. The medium was replaced with a fresh medium containing individual samples and incubation was continued for another 20 hours. The samples added were isohumulone (IH(F)) and isohumulone (IcH(G)) at a concentration of 25 μM. The cells were recovered, broken by ultrasonication, and centrifuged to obtain the supernatant, and the amount of the total intracellular glutathione was measured using a glutathione assay kit (Cayman Chemical) (n=2, mean±standard deviation). As a positive control, 15dPGJ2 (Cayman Chemical) was used.

[2] = test system: glutathione S-transferase pi2 (GSTP2); test: Expression of genes controlled by Nrf2 in RAW264.7: GSTP2; format: cell-based, mouse; details: RAW264.7, 3 μM, positive control
Procedure: (§1) A mouse macrophage cell line RAW264.7 was seeded on a φ60 mm dish (9×10^5 cells), 2 ml of a D-MEM medium (Invitrogen) supplemented with 10% fetal bovine serum (HyClone) and penicillin-streptomycin (100 units/ml and 100 μg/ml, respectively; Sigma) was added, and the dish was incubated at 37° C. in an atmosphere of 5% CO2 for 2 days. The medium was replaced with a fresh medium containing individual samples and incubation was continued for another 20 hours. Then, the total RNA was prepared using TRIzol (Invitrogen) and purified using a RNeasy Mini kit (Qiagen) and an RNase-free DNase set (Qiagen). Further, cDNA was synthesized from 5 μg of the purified total RNA using a Thermo Script RT-PCR system (Invitrogen), and the amount of mRNA expression of various genes was determined using a FastStart DNA Master SYBR Green I kit (Roche) and a Light Cycler (Roche).
(§2) The amount of expression of the various genes was corrected by the amount of expression of the housekeeping gene PO and calculated as a relative expression level (n=2, mean±standard deviation). […]

[3] = test system: mouse macrophage cell line RAW264.7; test: Suppressive action on cell death by hydrogen peroxide; format: cell-based; details: RAW264.7, 3 μM, positive control
Procedure: A mouse macrophage cell line RAW264.7 (6×10^4 cells/well) was incubated on a 96-well plate in 100 μl of a D-MEM medium (Invitrogen) containing individual samples, 10% fetal bovine serum (HyClone), and penicillin-streptomycin (100 units/ml and 100 μg/ml, respectively; Sigma) at 37° C. in an atmosphere of 5% CO2 overnight. The samples added were isohumulone (IH(F)) and isohumulone (IcH(G)) at a concentration of 25 μM. Hydrogen peroxide (Wako Pure Chemical Industries) was added hereto at a final concentration of 0.8 or 1.0 mM and incubation was continued for another 2 hours. Then, adsorption at 440 nm was measured using a microplate reader (Power Wave 200, Bio-Tek Instruments) with a cell growth reagent WST-1 (Roche Diagnostics). The cell survival rate for each sample was calculated by setting the value without hydrogen peroxide as 100% (n=2, mean±standard variation). As a positive control, 15dPGJ2 (Cayman Chemical) was used.

[4] = test system: NAD(P)H:quinone oxidoreductase (NQO1); test: Expression of genes controlled by Nrf2 in RAW264.7: NQO1; format: cell-based, mouse; details: RAW264.7, 3 μM, positive control
Procedure: as §1, §2

heme oxygenase 1 (HO1) = test: Expression of genes controlled by Nrf2 in RAW264.7: HO1; format: cell-based, mouse; details: RAW264.7, 3 μM, positive control
Procedure: as §1, §2

[5] = test system: glucose-6-phosphate dehydrogenase, X-linked (G6PDX); test: Expression of genes controlled by Nrf2 in RAW264.7: G6PDX; format: cell-based, mouse; details: RAW264.7, 3 μM, positive control
Procedure: as §1, §2

[6] = test system: thioredoxin reductase 1 (TXNRD1); test: Expression of genes controlled by Nrf2 in RAW264.7: TXNRD1; format: cell-based, mouse; details: RAW264.7, 3 μM, positive control
Procedure: as §1, §2

CD36 = test: Expression of genes controlled by Nrf2 in RAW264.7: CD36; format: cell-based, mouse; details: RAW264.7, 3 μM, positive control
Procedure: as §1, §2

TNF-α = test: Suppression of TNF-α production by macrophages (TPA and IFN-γ); format: cell-based, mouse; details: RAW264.7, TPA 400 nM and IFN-γ 10 units/ml, positive control
Procedure: A mouse macrophage cell line RAW264.7 (4×10^4 cells/well) was seeded on a 96-well plate, […] of a D-MEM medium (Invitrogen) containing each sample, 10% fetal bovine serum (HyClone), and penicillin-streptomycin (100 units/ml and 100 μg/ml, respectively; Sigma) was added, and the plate was incubated at 37° C. in an atmosphere of 5% CO2 for 4 hours. Then 150 μl of a medium containing TPA (phorbol 12-tetradecanoate 13-acetate, Sigma), mouse IFN-γ (interferon-γ, eBioscience), and each sample was added and incubation was carried out for 24 hours. TPA and IFN-γ were added at a final concentration of 400 nM and 10 units/ml, respectively. As samples, isomerized hop extract was added at a concentration of 5, 10, 20, and 30 μ/ml and isohumulone (IH(F)) and isohumulone (IcH(G)) were added individually at a concentration of 5, 10, 20, and 40 μM.
After completing incubation, the amount of TNF-α in the culture fluid was measured using a mouse TNF-α ELISA kit(eBioscience). The amount of TNF-α was expressed as a relative value by setting the value for the control as 100% (n=3, mean±standard variation). As a positive control, 15dPGJ2 (Cayman Chemical) was used.

[7] = test system: glutamate cysteine ligase modifier subunit (GCLM); test: Expression of genes controlled by Nrf2 in RAW264.7: GCLM; format: cell-based, mouse; details: RAW264.7, 3 μM, positive control
Procedure: as §1, §2

[8] = test system: glutathione S-transferase mu1 (GSTM1); test: Expression of genes controlled by Nrf2 in RAW264.7: GSTM1; format: cell-based, mouse; details: RAW264.7, 3 μM, positive control
Procedure: as §1, §2

catalase 1 (CAT1) = test: Expression of genes controlled by Nrf2 in RAW264.7: CAT1; format: cell-based, mouse; details: RAW264.7, 3 μM, positive control
Procedure: as §1, §2

[9] = test system: glucose-6-phosphate dehydrogenase 2 (G6PD2); test: Expression of genes controlled by Nrf2 in RAW264.7: G6PD2; format: cell-based, mouse; details: RAW264.7, 3 μM, positive control
Procedure: as §1, §2

[10] = test system: quinone reductase (QR) activity in mouse hepatoma Hepa1c1c7 cells; test: Induction of quinone reductase (QR) activity; format: cell-based; details: Hepa1c1c7 cells, 0.6, 1.7, 5, and 15 μM, 48 hours
Procedure: It has been known that quinone reductase (QR) activity is increased by increasing the expression of NAD(P)H:quinone oxidoreductase (NQO1) by Nrf2 activation (Proc Natl Acad Sci USA. 101, 10446-51 (2004)). Accordingly, isohumulones were allowed to act on mouse hepatoma Hepa1c1c7 cells (available from Dainippon Pharmaceutical Co., Ltd.) to examine whether the QR activity was induced.
The QR activity was measured in accordance with the method described in Analytical Biochemistry 169, 328-336 (1988).
A mouse hepatoma cell line Hepa1c1c7 was seeded on a 96-well plate (7-10×10^3 cells/well), 50 μl each of an α-MEM medium (Invitrogen) supplemented with 10% fetal bovine serum (HyClone) and penicillin-streptomycin (100 units/ml and 100 μg/ml, respectively; Sigma) was added, and the plate was incubated at […] in an atmosphere of 5% CO2 overnight. Next, the culture medium was replaced with a medium containing isomerized hop extract individually at a concentration of 1.9, 5.6, 16.7, or 50 μg/ml, or with a medium containing humulone (H), cohumulone (cH), adhumulone (aH), isohumulone (IH), isohumulone (IcH), or isohumulone (IaH) individually at a concentration of 0.6, 1.7, 5, and 15 μM and the plate was further incubated for 48 hours. Then, the cells in each well were broken using 0.08% digitonin and a 2 mM EDTA solution and absorption at 610 nm was measured by a menadione-formazan system using a microplate reader (Power Wave 200, Bio-Tek Instruments).
The QR inducing activity was calculated as a relative activity setting the activity of cells without addition to be 1 (n=3, mean±standard variation). Sulforaphane (Sul, available from Sigma) was used as a positive control.

ICAM-1 = ICAM-1 expression in vascular endothelial cells (HAEC), TNF-α stimulation, flow cytometry; format: cell-based, human; details: TNF-α 1.25 ng/ml
Procedure: Normal human aorta endothelial cells (HAEC, available from Cambrex) were cultured in a φ100 mm dish using 10 ml of endothelial cell medium kit-2 (Takara Shuzo) at 37° C. in an atmosphere of 5% CO2. Here, 30 μg/ml isomerized hop extract, 10 μM sulforaphane (Sul), or 10 mM N-acetyl cysteine (NAC) was allowed to act overnight. Next, after stimulating with the addition of human TNF-α (ProSpec-Tany TechnoGene) at a final concentration of 1.25 ng/ml), the cells were detached using a reagent for subculturing (Takara Shuzo) and flow cytometry analysis was carried out. Here, biotin anti-human ICAM antibody or biotin anti-human VCAM antibody (available from eBioscience) was used as a primary antibody and PE conjugated streptavidin (available from eBioscience) was used as a secondary antibody. A flow cytometer used was a FACSort analyzer (Becton Dickinson).

CCCCC/C=C/C=C1/C(=O)C=C[C@@H]1C/C=C\CCCC(=O)O [15dPGJ2, 15-deoxy-D12,14-prostaglandin J2, reference compound]
amount of the total intracellular glutathione [1]: Increased the amount of the total intracellular glutathione | expression of GSTP2 [2]: augmented the expression | cell death by hydrogen peroxide (cell survival rate) ([3]; hydrogen peroxide 0.8 mM): suppressed cell death | cell death by hydrogen peroxide (cell survival rate) ([3]; hydrogen peroxide 1.0 mM): suppressed cell death | expression of NQO1 [4]: augmented the expression | expression of HO1 (heme oxygenase 1 (HO1)): augmented the expression | expression of G6PDX [5]: augmented the expression | expression of TRNRD1 [6]: augmented the expression | expression of CD36 (CD36): augmented the expression | TNF-α production (TNF-α): concentration-dependently suppressed | expression of GCLM [7]: augmented the expression | expression of GSTM1 [8]: augmented the expression | expression of CAT1 (catalase 1 (CAT1)): augmented the expression | expression of G6PD2 [9]: augmented the expression

CC(C)=CCC(=O)C1(O)C(O)=C(C(=O)CC(C)C)C(=O)C1CC=C(C)C (stereo not drawn) [IH (E), isohumulone]
QR inducing activity [10]: activity was higher in isohumulones having a higher trans form content

CC(C)=CCC(=O)C1(O)C(O)=C(C(=O)CC(C)C)C(=O)C1CC=C(C)C (stereo not drawn) [IH (H), isohumulone]
QR inducing activity [10]: activity was higher in isohumulones having a higher trans form content

CC(C)=CCC(=O)C1(O)C(O)=C(C(=O)CC(C)C)C(=O)C1CC=C(C)C (stereo not drawn) [IH, isohumulone]
QR inducing activity [10]: Concentration-dependent QR inducing activity; also recorded: higher activity than isohumulone (IaH)

CCC(C)C(=O)C1=C(O)C(O)(C(=O)CC=C(C)C)C(CC=C(C)C)C1=O (stereo not drawn) [IaH]
QR inducing activity [10]: Concentration-dependent QR inducing activity

CC(C)=CCC(=O)C1(O)C(O)=C(C(=O)C(C)C)C(=O)C1CC=C(C)C (stereo not drawn) [IcH]
QR inducing activity [10]: higher activity than isohumulone (IaH) | QR inducing activity ([10]; listed as ICH): Concentration-dependent QR inducing activity

CC(=O)N[C@@H](CS)C(=O)O [N-acetyl cysteine]
expression of ICAM-1 (ICAM-1; 10 mM overnight): Such changes are also recognized

CCC(C)C(=O)C1=C(O)C(CC=C(C)C)=C(O)C(O)(CC=C(C)C)C1=O (stereo not drawn) [adhumulone, reference compound]
QR inducing activity [10]: no clear change

CC(C)=CCC1=C(O)C(O)(CC=C(C)C)C(=O)C(C(=O)C(C)C)=C1O (stereo not drawn) [cohumulone, reference compound]
QR inducing activity [10]: no clear change

C[S+]([O-])CCCCN=C=S (stereo not drawn) [sulforaphane]
expression of ICAM-1 (ICAM-1; 10 μM overnight): Such changes are also recognized
